Source: the supplement of paper PMC10307832

How the values were obtained:
Experiment in all cases: relative viability (nuclei count vs DMSO), 5 days (fraction); higher = more cells survive
[1] = system: Calu-6
Summary of the method: (§1)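 Lung cancer cell lines in 1536-well plates were dosed by pin tool the day after seeding, either with one drug alone or with a fixed anchor-drug dose plus five library-drug doses (not always all listed) in √10 steps. After 5 days, cells were fixed and their nuclei stained in one step (final 0.05% Triton X-100, 1% formaldehyde, 1 ug/ml Hoechst), then counted on 4× images. Relative viability is the nuclei count in treated wells divided by that in vehicle wells. Values are medians of duplicate plates.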

[2] = system: EBC-1
Summary of the method: as §1

[3] = system: EKVX
Summary of the method: as §1

[4] = system: A549
Summary of the method: as §1

[5] = system: NCI-H1666
Summary of the method: as §1

[6] = system: LC-2-ad
Summary of the method: as §1

[7] = system: ChaGo-K-1
Summary of the method: as §1

[8] = system: NCI-H1703
Summary of the method: as §1

[9] = system: NCI-H1299
Summary of the method: as §1

[10] = system: IA-LM
Summary of the method: as §1

## CCNC(=O)c1noc(-c2cc(C(C)C)c(O)cc2O)c1-c1ccc(CN2CCOCC2)cc1 [Luminespib] + CS(=O)(=O)N1CCN(Cc2cc3nc(-c4cccc5[nH]ncc45)nc(N4CCOCC4)c3s2)CC1 [Pictilisib] (partner 1 µM)
[1]; first compound 0.002 µM
  relative viability: 1.04
[1]; first compound 0.006325 µM
  relative viability: 0.847
[1]; first compound 0.02 µM
  relative viability: 1
[1]; first compound 0.06325 µM
  relative viability: 0.119
[1]; first compound 0.2 µM
  relative viability: 0.112
[2]; first compound 0.002 µM
  relative viability: 0.471
[2]; first compound 0.006325 µM
  relative viability: 0.365
[2]; first compound 0.02 µM
  relative viability: 0.248
[2]; first compound 0.06325 µM
  relative viability: 0.118
[2]; first compound 0.2 µM
  relative viability: 0.128
[3]; first compound 0.002 µM
  relative viability: 0.392
[3]; first compound 0.006325 µM
  relative viability: 0.46
[3]; first compound 0.02 µM
  relative viability: 0.229
[3]; first compound 0.06325 µM
  relative viability: 0.226
[3]; first compound 0.2 µM
  relative viability: 0.0934
[4]; first compound 0.002 µM
  relative viability: 0.536
[4]; first compound 0.006325 µM
  relative viability: 0.517
[4]; first compound 0.02 µM
  relative viability: 0.152
[4]; first compound 0.06325 µM
  relative viability: 0.0437
[4]; first compound 0.2 µM
  relative viability: 0.0569
[5]; first compound 0.002 µM
  relative viability: 0.423
[5]; first compound 0.006325 µM
  relative viability: 0.375
[5]; first compound 0.02 µM
  relative viability: 0.315
[5]; first compound 0.06325 µM
  relative viability: 0.235
[5]; first compound 0.2 µM
  relative viability: 0.145
[6]; first compound 0.002 µM
  relative viability: 0.526
[6]; first compound 0.006325 µM
  relative viability: 0.477
[6]; first compound 0.02 µM
  relative viability: 0.276
[6]; first compound 0.06325 µM
  relative viability: 0.11
[6]; first compound 0.2 µM
  relative viability: 0.0708
[7]; first compound 0.002 µM
  relative viability: 0.782
[7]; first compound 0.02 µM
  relative viability: 0.501
[7]; first compound 0.06325 µM
  relative viability: 0.345
[7]; first compound 0.2 µM
  relative viability: 0.362
[8]; first compound 0.002 µM
  relative viability: 0.251
[8]; first compound 0.006325 µM
  relative viability: 0.244
[8]; first compound 0.02 µM
  relative viability: 0.179
[8]; first compound 0.06325 µM
  relative viability: 0.179
[8]; first compound 0.2 µM
  relative viability: 0.165
[9]; first compound 0.002 µM
  relative viability: 0.874
[9]; first compound 0.006325 µM
  relative viability: 0.698
[9]; first compound 0.02 µM
  relative viability: 0.767
[9]; first compound 0.06325 µM
  relative viability: 0.0703
[9]; first compound 0.2 µM
  relative viability: 0.0666
[10]; first compound 0.002 µM
  relative viability: 0.324
[10]; first compound 0.006325 µM
  relative viability: 0.369
[10]; first compound 0.02 µM
  relative viability: 0.159
[10]; first compound 0.06325 µM
  relative viability: 0.0483
[10]; first compound 0.2 µM
  relative viability: 0.0407

## CN1CCN(CCOc2cc(OC3CCOCC3)c3c(Nc4c(Cl)ccc5c4OCO5)ncnc3c2)CC1 [Saracatinib] + CC1(C)CCC(c2ccc(Cl)cc2)=C(CN2CCN(c3ccc(C(=O)NS(=O)(=O)c4ccc(N[C@H](CCN5CCOCC5)CSc5ccccc5)c(S(=O)(=O)C(F)(F)F)c4)cc3)CC2)C1 [Navitoclax] (partner 0.5 µM)
[1]; first compound 0.02 µM
  relative viability: 0.914
[1]; first compound 0.2 µM
  relative viability: 0.746
[1]; first compound 0.6325 µM
  relative viability: 0.731
[1]; first compound 2 µM
  relative viability: 0.562
[2]; first compound 0.02 µM
  relative viability: 0.542
[2]; first compound 0.2 µM
  relative viability: 0.408
[2]; first compound 0.6325 µM
  relative viability: 0.393
[2]; first compound 2 µM
  relative viability: 0.43
[3]; first compound 0.02 µM
  relative viability: 0.902
[3]; first compound 0.2 µM
  relative viability: 0.88
[3]; first compound 0.6325 µM
  relative viability: 0.903
[3]; first compound 2 µM
  relative viability: 0.357
[4]; first compound 0.02 µM
  relative viability: 1.42
[4]; first compound 0.2 µM
  relative viability: 0.903
[4]; first compound 0.6325 µM
  relative viability: 1.39
[4]; first compound 2 µM
  relative viability: 1.38
[5]; first compound 0.02 µM
  relative viability: 1.04
[5]; first compound 0.2 µM
  relative viability: 0.928
[5]; first compound 0.6325 µM
  relative viability: 1.06
[5]; first compound 2 µM
  relative viability: 0.667
[6]; first compound 0.02 µM
  relative viability: 0.453
[6]; first compound 0.6325 µM
  relative viability: 0.448
[6]; first compound 2 µM
  relative viability: 0.348
[7]; first compound 0.02 µM
  relative viability: 1.15
[7]; first compound 0.2 µM
  relative viability: 0.68
[7]; first compound 0.6325 µM
  relative viability: 1.21
[7]; first compound 2 µM
  relative viability: 0.542
[8]; first compound 0.02 µM
  relative viability: 1.09
[8]; first compound 0.2 µM
  relative viability: 0.904
[8]; first compound 0.6325 µM
  relative viability: 0.43
[8]; first compound 2 µM
  relative viability: 0.269
[9]; first compound 0.02 µM
  relative viability: 1.01
[9]; first compound 0.2 µM
  relative viability: 1.06
[9]; first compound 0.6325 µM
  relative viability: 1.04
[9]; first compound 2 µM
  relative viability: 1.04
[10]; first compound 0.02 µM
  relative viability: 0.865
[10]; first compound 0.6325 µM
  relative viability: 1.45
[10]; first compound 2 µM
  relative viability: 1

## Cc1csc(=NC2CCCCC2)n1/N=C/c1ccc(O)c(O)c1O [MIM1] + C[C@@H](Oc1cc(-c2cnn(C3CCNCC3)c2)cnc1N)c1c(Cl)ccc(F)c1Cl [Crizotinib] (partner 1 µM)
[1]; first compound 0.2 µM
  relative viability: 0.785
[1]; first compound 0.6325 µM
  relative viability: 0.826
[1]; first compound 2 µM
  relative viability: 0.696
[1]; first compound 6.325 µM
  relative viability: 0.36
[1]; first compound 20 µM
  relative viability: 0.186
[2]; first compound 0.2 µM
  relative viability: 0.207
[2]; first compound 0.6325 µM
  relative viability: 0.196
[2]; first compound 2 µM
  relative viability: 0.195
[2]; first compound 6.325 µM
  relative viability: 0.196
[2]; first compound 20 µM
  relative viability: 0.227
[3]; first compound 0.2 µM
  relative viability: 0.989
[3]; first compound 0.6325 µM
  relative viability: 0.887
[3]; first compound 2 µM
  relative viability: 0.788
[3]; first compound 6.325 µM
  relative viability: 0.527
[3]; first compound 20 µM
  relative viability: 0.757
[4]; first compound 0.2 µM
  relative viability: 0.709
[4]; first compound 0.6325 µM
  relative viability: 0.715
[4]; first compound 2 µM
  relative viability: 0.762
[4]; first compound 6.325 µM
  relative viability: 0.402
[4]; first compound 20 µM
  relative viability: 0.227
[5]; first compound 0.2 µM
  relative viability: 0.926
[5]; first compound 0.6325 µM
  relative viability: 0.92
[5]; first compound 2 µM
  relative viability: 0.958
[5]; first compound 6.325 µM
  relative viability: 0.663
[5]; first compound 20 µM
  relative viability: 0.238
[6]; first compound 0.2 µM
  relative viability: 0.499
[6]; first compound 0.6325 µM
  relative viability: 0.385
[6]; first compound 2 µM
  relative viability: 0.34
[6]; first compound 6.325 µM
  relative viability: 0.277
[6]; first compound 20 µM
  relative viability: 0.21
[7]; first compound 0.2 µM
  relative viability: 1.07
[7]; first compound 0.6325 µM
  relative viability: 1.13
[7]; first compound 2 µM
  relative viability: 0.953
[7]; first compound 6.325 µM
  relative viability: 0.835
[7]; first compound 20 µM
  relative viability: 0.285
[8]; first compound 0.2 µM
  relative viability: 0.534
[8]; first compound 0.6325 µM
  relative viability: 0.482
[8]; first compound 2 µM
  relative viability: 0.455
[8]; first compound 6.325 µM
  relative viability: 0.175
[8]; first compound 20 µM
  relative viability: 0.127
[9]; first compound 0.2 µM
  relative viability: 0.857
[9]; first compound 0.6325 µM
  relative viability: 0.975
[9]; first compound 2 µM
  relative viability: 0.975
[9]; first compound 6.325 µM
  relative viability: 0.966
[9]; first compound 20 µM
  relative viability: 0.904
[10]; first compound 0.2 µM
  relative viability: 0.697
[10]; first compound 0.6325 µM
  relative viability: 0.789
[10]; first compound 2 µM
  relative viability: 0.773
[10]; first compound 6.325 µM
  relative viability: 0.443
[10]; first compound 20 µM
  relative viability: 0.204
